From patent publication US20250298027A1, “METHOD OF EVALUATING SMALL MOLECULE DISTRIBUTION USING TELLUROPHENE ANALOGUES” (THE GOVERNING COUNCIL OF THE UNIVERSITY OF TORONTO, priority 2022, published 2025)
Several values for one entry are separate records, joined by “and”; a condition that tells them apart may be missing. Identical values can stand only once. Like-named read-outs stand apart in the source and are kept apart here.

Columns and labels:
[1] = system: Jurkat cells; assay: 7b and 8b incorporation into living Jurkat cells with or without Carfilzomib (CyTOF); format: cell-based; conditions: 1 hour
Protocol: Co-dosing of cells with Te-Car 7b and Car lead to an approximately 50% reduction in Te labelling confirming the on-target labelling of modified compound (FIG. 10). This evidence supports that TeCar can be used to monitor Carfilzomib's target engagement in a more complex and disease-relevant samples.
Jurkat cells were seeded in […] plastic culture flasks at a concentration of approximately 5 million cells/mL for 24 hours prior to dosing. The cells were dosed with either Carfilzomib, 7b, or 8b at a final concentration of 500 nM, or a combination of Carfilzomib/7b (500 nM each), Carfilzomib/8b (500 nM each), or a DMSO control (final percentage of 0.5%) in complete media for 1 hour.
The media was then immediately removed, and the cells resuspended in 3 mL of cold phosphate-buffered saline (PBS), before being aliquoted into three 1 mL aliquots per each dosing regime. The samples were then prepped for CYTOF® analysis.
Briefly, each sample aliquot was washed three times with cold PBS (1 mL×3). The cells were then fixed, permeabilized, and stained with Cell-ID™ Intercalator-Ir stain in PBS (1 mL) for 1 hour at rt. […]
CYTOF® analysis was conducted the following day. […] The average ^128Te signal in the population of cells (events positive for 191 Ir and 193Ir signal) for each sample was determined.

[2] = system: Jurkat cells; assay: Cell viability in Jurkat cells (WST-1); format: cell-based
Protocol: In Jurkat cells treated with increasing concentrations of TeCar 7b, a concentration-dependent reduction in overall cell viability was observed (Table 1). When compared to Carfilzomib, similar concentrations of 7b (Te-Car) were needed to produce a 50% reduction in Jurkat cell viability.
Jurkat cells (CRL-2899) were purchased from ATCC were maintained in Rosewell Park Memorial Institute (RPMI) media supplemented with 10% fetal bovine serum (FBS) and 1% penicillin/streptomycin in a humidified 37° C. incubator with 5% CO2 (g), and cultured as per ATCC guidelines in culture flasks purchased from Starstedt.
Jurkat cells, at a concentration of approximately 12 500 cells/mL, were seeded in a 96 well plate in complete media in dosed with increasing concentrations (0-200 nM) of Carfilzomib or 7b (100 ul final volume) and left to incubate for 44 hours. Each concentration was repeated in triplicate. 10 uL of WST-1 was then added to each well, and the plate was allowed to incubate for 2 hours before the absorbance at 440 nm was measured. Absorbance signal in 100 uL complete media+10 uL WST-1 was first subtracted from each well before plotting the absorbance signal vs log (concentration). The concentration needed to see a 50% reduction in absorbance signal was then determined using GraphPad Prism software.

[3] = system: Top2; conditions: fluorescence anisotropy and DNA relaxation gel assays; read-out: IC50 of teniposide in literature; cited from earlier work
[4] = system: HL-60 cells; assay: WST-1 viability assay in HL-60 cells; format: cell-based; conditions: Homo sapiens, HL-60; 24 hours, maximum concentration of 50 μM; read-out: inhibition of proliferation of HL-60 cells
Protocol: The toxicity of 1 was compared to teniposide in HL-60 cells after incubation for 24 hours using a WST-1 viability assay.
WST-1 metabolic cytotoxicity assay: HL-60 cells (ATCC® CCL-240TM) were maintained in DMEM media with 2 mM L-glutamine (Gibco) supplemented with 20% calf serum and 100× dilution of penicillin-streptomycin solution (Gibco). Cells were maintained at 37° C. in a humidified atmosphere of 5% CO2 in air. HL-60 cells (100 pL) were seeded into a 96 well clear at a density of 5×10^5 cells/mL. Cells were treated with either DMSO or appropriate inhibitor from DMSO stocks. […] Cells were incubated for 24 h at 37° C. under a 5% CO2 atmosphere. WST-1 reagent (10 pL; Roche Diagnostics, 05015944001) was added to each well and gently mixed by pipetting. Cells were incubated for 1 h at 37° C. under 5% CO2 atmosphere. UV-vis absorbance measurements of each well at 450 nm was recorded using a TECAN Safire 2 plate reader. Data was background corrected against wells that contained cell growth media without cells and WST-1. Experiment was performed in triplicate.

[5] = mice, depending on route of administration and dosing regimen; cited from earlier work
[6] = system: pH2AX^Ser139; assay: pH2AX immunohistochemistry of PANC-1 xenograft tumour sections; format: in vivo, mice; conditions: 20 mg/kg IP, 2 hours
Protocol: PANC-1 xenograft-bearing mice were injected with either teniposide or the Te-teniposide analogue 1 IP. A dose of 20 mg/kg was selected based on literature reports detailing teniposide drug delivery strategies. After 2 hours, mice were sacrificed and tissues of interest were harvested, formalin fixed, and paraffin embedded. Tissue sections (5 um) were cut and mounted onto microscopy slides. The expression of pH2AX^Ser139 levels were first assessed by immunohistochemistry. Serial sections derived from PANC-1 xenograft tumours were stained with primary antibody and subsequently HRP-conjugated secondary antibody for standard brown staining. DSBs are indicated by large, discrete pH2AX^Ser139 foci. Representative images of immunostained slides show increased pH2AX^Ser139 levels in treated mice relative to saline injected control with clear, punctate staining (FIG. 7).

[7] = molecular target: T1, Top2 (Homo sapiens, UniProt P11388); assay: Top2 decatenation assay using kinetoplast DNA; format: biochemical; conditions: 5, 10, 25 and 50 μM
T1 construct: purchased TopoGEN, Inc
T1 sequence (P11388 whole entry): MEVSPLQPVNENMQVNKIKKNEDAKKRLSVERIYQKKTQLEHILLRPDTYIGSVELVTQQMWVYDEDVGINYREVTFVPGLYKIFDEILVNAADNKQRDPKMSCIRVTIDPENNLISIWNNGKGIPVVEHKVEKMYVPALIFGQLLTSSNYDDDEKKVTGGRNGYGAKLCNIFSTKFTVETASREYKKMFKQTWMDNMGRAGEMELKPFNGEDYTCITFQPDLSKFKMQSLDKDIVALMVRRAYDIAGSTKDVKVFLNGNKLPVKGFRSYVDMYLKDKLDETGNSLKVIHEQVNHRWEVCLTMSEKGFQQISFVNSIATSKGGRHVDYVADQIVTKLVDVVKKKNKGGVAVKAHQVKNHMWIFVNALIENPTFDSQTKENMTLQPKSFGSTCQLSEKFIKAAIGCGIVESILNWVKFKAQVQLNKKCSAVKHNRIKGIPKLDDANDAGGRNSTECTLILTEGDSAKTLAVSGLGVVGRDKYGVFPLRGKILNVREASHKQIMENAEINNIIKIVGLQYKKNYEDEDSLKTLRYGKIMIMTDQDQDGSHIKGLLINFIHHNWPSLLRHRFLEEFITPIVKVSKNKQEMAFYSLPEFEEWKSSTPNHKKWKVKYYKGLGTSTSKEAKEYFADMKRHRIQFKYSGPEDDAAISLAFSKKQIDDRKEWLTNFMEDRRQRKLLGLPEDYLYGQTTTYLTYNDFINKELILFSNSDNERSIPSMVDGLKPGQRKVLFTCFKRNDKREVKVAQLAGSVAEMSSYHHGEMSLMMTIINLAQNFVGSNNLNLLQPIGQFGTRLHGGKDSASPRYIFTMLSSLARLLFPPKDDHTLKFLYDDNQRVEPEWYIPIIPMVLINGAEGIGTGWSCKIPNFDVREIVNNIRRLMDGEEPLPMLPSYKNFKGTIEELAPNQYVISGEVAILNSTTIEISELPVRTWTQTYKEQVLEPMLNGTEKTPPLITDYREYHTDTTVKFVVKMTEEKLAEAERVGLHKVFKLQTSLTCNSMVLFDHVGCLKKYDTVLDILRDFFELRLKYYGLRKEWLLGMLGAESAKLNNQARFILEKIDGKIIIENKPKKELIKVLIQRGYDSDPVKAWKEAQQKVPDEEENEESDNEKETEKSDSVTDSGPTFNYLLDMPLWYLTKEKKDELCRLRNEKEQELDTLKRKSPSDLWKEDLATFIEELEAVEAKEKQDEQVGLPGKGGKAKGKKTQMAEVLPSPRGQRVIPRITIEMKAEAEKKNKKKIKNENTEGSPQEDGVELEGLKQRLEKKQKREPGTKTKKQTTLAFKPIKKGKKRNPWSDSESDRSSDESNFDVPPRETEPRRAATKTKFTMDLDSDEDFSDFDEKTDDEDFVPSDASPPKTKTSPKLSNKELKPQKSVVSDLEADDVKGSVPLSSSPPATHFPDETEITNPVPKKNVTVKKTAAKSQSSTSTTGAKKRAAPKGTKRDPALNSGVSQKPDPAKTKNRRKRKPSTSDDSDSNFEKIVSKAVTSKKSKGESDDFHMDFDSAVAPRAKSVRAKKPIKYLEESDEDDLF
Protocol: The relative Top2 inhibitory activity of 1 in comparison to teniposide was evaluated in decatenation assays using kinetoplast DNA (kDNA). Decatenation of the DNA, catalyzed by Top2, can be readily resolved using agarose gel electrophoresis.
Top2 decatenation assay: The assay was performed according to manufacturer's protocol (TopoGEN, Inc.). The total reaction volume was 20 μL of assay buffer (120 mM KCl, 50 mM Tris-HCl, 10 mM MgCl2, 0.5 mM DTT, 0.5 mM ATP, and 30 μg/mL BSA) and 120 ng of kinetoplast DNA (kDNA) substrate. One unit of TopoII enzyme in was added to reaction microfuge tubes in the presence or absence of inhibitor. The reaction was incubated for 30 min at 37° C. The reaction was stopped by addition of 5 μL of stop buffer (5% sarkosyl, 0.025% bromophenolblue, and 50% glycerol). The samples were then analyzed using electrophoresis using a 1% agarose gel in Tris-borate-EDTA buffer with 0.5 pg/mL ethidium bromide stain. Gels were imaged using Syngene G: Box Gel Imager (Chemi-XT4 GENESys software with preset for ethidium bromide stained agarose gels). Band intensities were analyzed using ImageJ software.

[8] = system: pH2AX^Ser139; assay: pH2AX Western blotting in PANC-1 cells; format: cell-based, Human; conditions: 1 μM, 24 and 48 hours
Protocol: Next, the ability of 1 to induce DSBs—the dominant type of DNA damage resulting from Top2 inhibition was investigated. In response to DSBs, a cascade of DNA repair mechanisms are triggered, including-phosphorylation of the histone variant H2AX at Ser139. Thus, the level of pH2AX^Ser139 serves as a reliable marker for Top2-linked DSBs. Western blotting was used to measure pH2AX^Ser139 in PANC-1 cells treated with 1 μM of either 1 or teniposide for 24 and 48 hours.
pH2AX Blotting: PANC-1 cells (0.5×10^6) cells were seeded in 60 mm plastic petri dishes (Corning Inc. NY) and incubated for 18 h. The spent medium is removed and replaced with fresh medium containing drug ([…]) and incubated for either 24 or 48h. Control cells were treated with DMSO only. The cells were then lysed with RIPA buffer (25 mM Tris·HCl PH 7.6, 150 mM NaCl, 1% NP-40, 1% sodium deoxycholate, 0.1% SDS) (ThermoFisher Scientific) containing Halt Protease Inhibitor Cocktail (Cat. No. 78410) and Halt Phosphatase Inhibitor Cocktail (Cat. No. 78420) as per manufacturer's protocol. […] Antibodies (Abcam, Cambridge, MA) targeting the following proteins were used H2AX (S139) (ab11174, polyclonal) and β-tubulin (ab6046, polyclonal).

[9] = system: PANC-1 cells; assay: alamarBlue viability assay in PANC-1 cells; format: cell-based, Human; conditions: maximum dose of 25 μM, 72 hours exposure
Protocol: Similarly, PANC1 cells were characterized for later in vivo experiments. Using an alamarBlue viability assay and a proliferative assay, PANC-1 cells were incubated with 1 or teniposide.
AlamarBlue assay: PANC-1 cells were seeded into black, clear-bottom 96-well assay plates (Corning; CLS3603) and incubated for 24 hours. The medium was replaced with […] of teniposide or compound 1. After 72 hours exposure to drug, alamarBlue (Thermo Fisher Scientific; DAL1100) cell viability reagent was added and incubated for 4 hours at 37° C. Fluorescence intensity was measured using an excitation wavelength of 560 nm and an emission of 590 nm. Cell viability was calculated by normalizing to an untreated control.

## CC(C)C[C@H](NC(=O)[C@H](CCc1ccccc1)NC(=O)CN1CCOCC1)C(=O)N[C@@H](Cc1ccc[te]1)C(=O)N[C@@H](CC(C)C)C(=O)[C@@]1(C)CO1 (single isomer, unassigned) [7b]
[1]; 7b and Carfilzomib 500 nM each, ^128Te
  reduction in Te labelling on co-dosing with Carfilzomib: approximately 50%
[1]; mass cytometry
  accumulation of tellurium within the cells: activity dependent accumulation
[2]; Homo sapiens, Jurkat, 44 h, read-out: IC50, viability of Jurkat cells, Average +/− SD, 44 hours, WST-1, average of 3 biological replicates
  IC50: 9.71 nM
[2]; Homo sapiens, Jurkat, 44 h, read-out: IC50, viability of Jurkat cells, single biological replicate, 44 hours, WST-1, Biol. Rep 1-3
  IC50: 9.48 nM
[2]; read-out: IC50, viability of Jurkat cells, single biological replicate, 44 hours, WST-1, Biol. Rep 1-3
  IC50: 9.87 nM and 9.78 nM

## CC(C)C[C@H](NC(=O)[C@H](CCc1ccccc1)NC(=O)CN1CCOCC1)C(=O)N[C@@H](Cc1ccccc1)C(=O)N[C@@H](CC(C)C)C(=O)[C@@]1(C)CO1 [Carfilzomib, reference compound]
[2]; 44 hours, WST-1, Biol. Rep 1-3, read-out: IC50, viability of Jurkat cells, single biological replicate
  IC50: 9.99 nM and 9.41 nM
[2]; Homo sapiens, Jurkat, 44 h, WST-1, Biol. Rep 1-3, read-out: IC50, viability of Jurkat cells, single biological replicate
  IC50: 9.13 nM
[2]; Homo sapiens, Jurkat, 44 h, WST-1, average of 3 biological replicates, read-out: IC50, viability of Jurkat cells, Average +/− SD
  IC50: 9.51 nM

## COc1cc([C@@H]2c3cc4c(cc3[C@@H](O[C@@H]3O[C@@H]5CO[C@@H](c6cccs6)O[C@H]5[C@H](O)[C@H]3O)[C@H]3COC(=O)[C@H]23)OCO4)cc(OC)c1O [teniposide, reference compound]
[3]
  IC50: 1300 to 9800 nM
[4]
  inhibition at 50 µM: ≤ 60%
[5]
  half-life: 1 to 5 h
[6]
  pH2AX^Ser139 levels in tumour sections relative to saline injected control: increased
[7]
  inhibition of the decatenation reaction: dose-dependent inhibition
[8]
  levels of pH2AX^Ser139 relative to DMSO-treated control: Increased levels
[9]
  loss of cell viability in PANC-1 cells: almost complete loss of cell viability
